Data as given in patent US6890736B1, “Methods for producing proteins in cultured cells” (Immunex Corporation, priority 2002, dated 2005).

Tests used:
Format in all cases: cell-based, Chinese hamster
[1] = system: cell line 25H9 (CHO cells); assay: Example 2: cell number and viability; conditions: 31° C., 0.5 mM butyrate
Method: (§1) About 2×10^6 cells of cell line 25H9 were inoculated into 30 milliliters of serum-free medium and incubated at the temperatures indicated in Table 1 in vented shake flasks. At the times indicated in Table 1, samples were taken from each flask to determine IL-1R-II titer, cell number, and cell viability. IL-1R-II protein titer was determined by ELISA assay. Cell number was determined by counting cells in a hemocytometer. Cell viability was determined by trypan blue staining and counting stained cells in a hemocytometer. Cumulative viable cell density (CVCD) is the area under the curve of a plot of the viable cell density versus time (in units of cells/ml/day). Productivity (pg of IL-1R-II/cell/day) was determined by dividing the protein titer on a particular day by the CVCD on the same day. Cells were fed with amino acids on days 2 and 5, and dextrose was added periodically in order to maintain levels above 2.0 g/L. All samples were done in duplicate, and the data shown is an average value.
(§2) To determine an optimum temperature and decitabine concentration, three temperatures (30° C., 31° C., and 32° C.) and three decitabine concentrations (10 μM, 15 μM, and 20 μM) were tested. A 31° C. culture containing 0.5 mM sodium butyrate was grown as a control. […] See e.g. International Application Nos. WO 89/06686 and WO 87/05626. The experiment was performed as in Example 1 except that the inducer concentrations, temperatures, and days at which data was collected are as indicated in Table 2 and FIG. 1.

[2] = Example 2: cell number and viability; conditions: Chinese hamster, 31° C., 0.5 mM butyrate
Method: as §1, §2

[3] = system: cell line 25H9 (CHO cells that produce IL-1R-II protein); assay: Example 2: optimization of temperature and decitabine concentration, IL-1R-II production; conditions: 31° C., 0.5 mM butyrate
Method: as §1, §2

[4] = system: cell line 25H9 (CHO cells that produce IL-1R-II protein); assay: Example 3: induction with 5-bromo-2′-deoxycytidine 5′-monophosphate, IL-1R-II production
Method: as §1
(§3) The following experiment compares the effects of 5-bromo-2′-deoxycytidine 5′-monophosphate and 5-aza-2′-deoxycytidine on induction of protein production. The experiment was done as described in Example 1 with the following exceptions. All cultures were incubated at 31° C., and cell number and viability were determined using a Guava PCA Cytometer (available from Guava Technologies, Hayward, Calif., USA). Samples were done in triplicate.

[5] = system: cell line 25H9 (CHO cells); assay: Example 3: cell number (Guava PCA Cytometer); conditions: 31° C.
Method: as §1, §3

## CCCC(=O)[O-].[Na+] [butyrate, sodium butyrate]
[1]; day 0
  Cumulative Viable Cell Density: 0 mL⁻¹ day⁻¹
  Viable Cell Density: 2e+06 mL⁻¹
[1]; day 3
  Cumulative Viable Cell Density: 8.9e+06 mL⁻¹ day⁻¹
  Viable Cell Density: 4e+06 mL⁻¹
[1]; day 6
  Cumulative Viable Cell Density: 2.09e+07 mL⁻¹ day⁻¹
  Viable Cell Density: 4e+06 mL⁻¹
[1]; day 8
  Cumulative Viable Cell Density: 2.89e+07 mL⁻¹ day⁻¹
  Viable Cell Density: 3.9e+06 mL⁻¹
[2]; day 0
  viability at 0 day, 0.5 mM: 94.2%
[2]; day 3
  viability at 3 day, 0.5 mM: 91.7%
[2]; day 6
  viability at 6 day, 0.5 mM: 88.5%
[2]; day 8
  viability at 8 day, 0.5 mM: 71.1%
[3]; day 0
  IL1R-II Titer: 0.0 µg/mL
[3]; day 3
  IL1R-II Titer: 214.0 µg/mL
  Productivity: 23.9 pg IL-1R-II/cell/day
[3]; day 6
  IL1R-II Titer: 473.0 µg/mL
  Productivity: 22.6 pg IL-1R-II/cell/day
[3]; day 8
  IL1R-II Titer: 862.0 µg/mL
  Productivity: 29.8 pg IL-1R-II/cell/day

## Nc1nc(=O)n([C@H]2C[C@H](O)[C@@H](COP(=O)(O)O)O2)cc1Br [5-bromo-2′-deoxycytidine 5′-monophosphate]
[4]; 31° C.
  effectiveness at inducing protein production relative to 5-aza-2′-deoxycytidine: about twice as effective
  inducing IL-1R-II production, 10 μM versus 5 μM or 15 μM: more effective than either 5 μM or 15 μM
[4]; 31° C., 5 μM, day 0
  Titer of IL-1R-II: 0.0 mg/L
[4]; 31° C., 5 μM, day 2
  Productivity: 12.4 pg of IL-1RII/cell/day
  Titer of IL-1R-II: 67.6 mg/L
[4]; 31° C., 5 μM, day 5
  Productivity: 13.8 pg of IL-1RII/cell/day
  Titer of IL-1R-II: 197.4 mg/L
[4]; 31° C., 5 μM, day 7
  Productivity: 14.9 pg of IL-1RII/cell/day
  Titer of IL-1R-II: 289.1 mg/L
[4]; 31° C., 5 μM, day 9
  Productivity: 15.2 pg of IL-1RII/cell/day
  Titer of IL-1R-II: 357.6 mg/L
[4]; 31° C., 10 μM, day 0
  Titer of IL-1R-II: 0.0 mg/L
[4]; 31° C., 10 μM, day 2
  Productivity: 13.4 pg of IL-1RII/cell/day
  Titer of IL-1R-II: 75.0 mg/L
[4]; 31° C., 10 μM, day 5
  Productivity: 17.6 pg of IL-1RII/cell/day
  Titer of IL-1R-II: 264.0 mg/L
[4]; 31° C., 10 μM, day 7
  Productivity: 19.2 pg of IL-1RII/cell/day
  Titer of IL-1R-II: 401.4 mg/L
[4]; 31° C., 10 μM, day 9
  Productivity: 18.6 pg of IL-1RII/cell/day
  Titer of IL-1R-II: 484.0 mg/L
[4]; 31° C., 15 μM, day 0
  Titer of IL-1R-II: 0.0 mg/L
[4]; 31° C., 15 μM, day 2
  Productivity: 11.4 pg of IL-1RII/cell/day
  Titer of IL-1R-II: 61.4 mg/L
[4]; 31° C., 15 μM, day 5
  Productivity: 12.1 pg of IL-1RII/cell/day
  Titer of IL-1R-II: 167.3 mg/L
[4]; 31° C., 15 μM, day 7
  Productivity: 13.4 pg of IL-1RII/cell/day
  Titer of IL-1R-II: 249.1 mg/L
[4]; 31° C., 15 μM, day 9
  Productivity: 14.2 pg of IL-1RII/cell/day
  Titer of IL-1R-II: 318.3 mg/L
[4]; 31° C., 5, 10, 15 μM
  inducing IL-1R-II production, all three concentrations versus 10 μM 5-aza-2′-deoxycytidine: more effective than 10 μM 5-aza-2′-deoxycytidine
[5]; 5 μM, day 0
  Cumulative Viable Cell Density: 0.0 10^6 cells/ml/day
  Viable Cell Density: 2.4 cells/ml × 10^6
[5]; 5 μM, day 2
  Cumulative Viable Cell Density: 5.5 10^6 cells/ml/day
  Viable Cell Density: 3.1 cells/ml × 10^6
[5]; 5 μM, day 5
  Cumulative Viable Cell Density: 14.3 10^6 cells/ml/day
  Viable Cell Density: 2.8 cells/ml × 10^6
[5]; 5 μM, day 7
  Cumulative Viable Cell Density: 19.4 10^6 cells/ml/day
  Viable Cell Density: 2.3 cells/ml × 10^6
[5]; 5 μM, day 9
  Cumulative Viable Cell Density: 23.5 10^6 cells/ml/day
  Viable Cell Density: 1.8 cells/ml × 10^6
[5]; 10 μM, day 0
  Cumulative Viable Cell Density: 0.0 10^6 cells/ml/day
  Viable Cell Density: 2.4 cells/ml × 10^6
[5]; 10 μM, day 2
  Cumulative Viable Cell Density: 5.6 10^6 cells/ml/day
  Viable Cell Density: 3.3 cells/ml × 10^6
[5]; 10 μM, day 5
  Cumulative Viable Cell Density: 15.0 10^6 cells/ml/day
  Viable Cell Density: 3.0 cells/ml × 10^6
[5]; 10 μM, day 7
  Cumulative Viable Cell Density: 20.9 10^6 cells/ml/day
  Viable Cell Density: 2.8 cells/ml × 10^6
[5]; 10 μM, day 9
  Cumulative Viable Cell Density: 26.0 10^6 cells/ml/day
  Viable Cell Density: 2.3 cells/ml × 10^6
[5]; 15 μM, day 0
  Cumulative Viable Cell Density: 0.0 10^6 cells/ml/day
  Viable Cell Density: 2.4 cells/ml × 10^6
[5]; 15 μM, day 2
  Cumulative Viable Cell Density: 5.4 10^6 cells/ml/day
  Viable Cell Density: 3.0 cells/ml × 10^6
[5]; 15 μM, day 5
  Cumulative Viable Cell Density: 13.8 10^6 cells/ml/day
  Viable Cell Density: 2.6 cells/ml × 10^6
[5]; 15 μM, day 7
  Cumulative Viable Cell Density: 18.6 10^6 cells/ml/day
  Viable Cell Density: 2.2 cells/ml × 10^6
[5]; 15 μM, day 9
  Cumulative Viable Cell Density: 22.4 10^6 cells/ml/day
  Viable Cell Density: 1.6 cells/ml × 10^6
[5]; all three concentrations tested
  viable cell density versus 10 μM 5-aza-2′-deoxycytidine: higher
